Measured values as given in PMC11053447, “Human ABC and SLC Transporters: The Culprit Responsible for Unspecific PSMA-617 Uptake?” (Pharmaceuticals, 2024).

Tests used:
human OAT3 = target: T1, human OAT3 (Homo sapiens, UniProt Q8TCC7); test: SLC transporter substrate assay, HEK293-OAT3-LV vs control HEK293-Mock-LV cells; details: 20 min
T1 sequence (Q8TCC7 1-542): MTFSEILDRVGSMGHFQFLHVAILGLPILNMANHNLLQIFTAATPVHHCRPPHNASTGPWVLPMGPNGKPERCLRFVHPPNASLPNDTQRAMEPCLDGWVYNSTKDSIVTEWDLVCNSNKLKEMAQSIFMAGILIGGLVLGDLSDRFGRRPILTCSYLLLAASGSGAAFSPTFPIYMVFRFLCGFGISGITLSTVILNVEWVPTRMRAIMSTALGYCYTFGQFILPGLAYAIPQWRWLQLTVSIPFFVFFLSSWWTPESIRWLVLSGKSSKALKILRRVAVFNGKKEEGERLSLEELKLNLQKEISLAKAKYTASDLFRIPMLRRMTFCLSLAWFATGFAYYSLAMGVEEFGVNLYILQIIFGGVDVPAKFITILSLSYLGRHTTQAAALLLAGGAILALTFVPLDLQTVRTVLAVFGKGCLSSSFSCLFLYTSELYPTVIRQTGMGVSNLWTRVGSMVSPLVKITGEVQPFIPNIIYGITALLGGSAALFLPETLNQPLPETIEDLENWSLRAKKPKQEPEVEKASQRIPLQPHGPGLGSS

human OAT1 = target: T2, human OAT1 (Homo sapiens, UniProt Q4U2R8); test: SLC transporter substrate assay, HEK293-OAT1-LV vs control HEK293-Mock-B-LV cells; details: 20 min
T2 sequence (Q4U2R8 1-563): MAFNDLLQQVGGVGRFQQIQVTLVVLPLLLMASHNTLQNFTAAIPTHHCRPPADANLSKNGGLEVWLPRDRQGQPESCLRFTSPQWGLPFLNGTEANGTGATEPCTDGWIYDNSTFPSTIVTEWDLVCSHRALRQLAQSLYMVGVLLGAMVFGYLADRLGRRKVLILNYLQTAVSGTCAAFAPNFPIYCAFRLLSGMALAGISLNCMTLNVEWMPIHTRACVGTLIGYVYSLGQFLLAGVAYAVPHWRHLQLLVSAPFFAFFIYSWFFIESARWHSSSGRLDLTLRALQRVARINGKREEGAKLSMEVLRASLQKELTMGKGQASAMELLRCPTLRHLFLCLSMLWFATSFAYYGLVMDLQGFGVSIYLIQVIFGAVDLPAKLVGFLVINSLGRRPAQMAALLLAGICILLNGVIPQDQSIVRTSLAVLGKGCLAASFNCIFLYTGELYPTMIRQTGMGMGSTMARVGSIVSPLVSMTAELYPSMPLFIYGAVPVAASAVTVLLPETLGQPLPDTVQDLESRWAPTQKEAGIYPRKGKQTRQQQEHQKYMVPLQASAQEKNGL

[1] = 0.03 µM nominal + Probenecid 500 µM
[2] = 0.30 µM nominal + Probenecid 500 µM
[3] = absence and presence of probenecid
[4] = 0.03 µM nominal + Probenecid 300 µM
[5] = 0.30 µM nominal + Probenecid 300 µM

SMILES: [3H]C(c1ccc2ccccc2c1)C([3H])(NC(=O)C1CCC(CNC(=O)CN2CCN(CC(=O)[O-])CCN(CC(=O)[O-])CCN(CC(=O)[O-])CC2)CC1)C(=O)NCCCCC(NC(=O)NC(CCC(=O)O)C(=O)O)C(=O)O.[Lu+3] (stereo not drawn) [([α,β-^3H]Nal)Lu-PSMA-617]
- Accumulation in OAT3 transporter expressing cells (human OAT3; [1]): 0.05 ± 0.01 pmol/mg protein
- Accumulation in control cells (human OAT3; [1]): 0.03 ± 0.01 pmol/mg protein
- Accumulation, active transport (human OAT3; [1]): 0.02 ± 0.01 pmol/mg protein
- Fold accumulation (human OAT3; [1]): 1.56
- Accumulation in OAT3 transporter expressing cells (human OAT3; 0.03 µM nominal, no inhibitor): 0.07 ± 0.01 pmol/mg protein
- Accumulation in control cells (human OAT3; 0.03 µM nominal, no inhibitor): 0.03 ± 0.00 pmol/mg protein
- Accumulation, active transport (human OAT3; 0.03 µM nominal, no inhibitor): 0.03 ± 0.01 pmol/mg protein
- Fold accumulation (human OAT3; 0.03 µM nominal, no inhibitor): 1.96
- Accumulation in OAT3 transporter expressing cells (human OAT3; [2]): 0.74 ± 0.15 pmol/mg protein
- Accumulation in control cells (human OAT3; [2]): 0.29 ± 0.07 pmol/mg protein
- Accumulation, active transport (human OAT3; [2]): 0.45 ± 0.17 pmol/mg protein
- Fold accumulation (human OAT3; [2]): 2.52
- Accumulation in OAT3 transporter expressing cells (human OAT3; 0.30 µM nominal, no inhibitor): 0.60 ± 0.13 pmol/mg protein
- Accumulation in control cells (human OAT3; 0.30 µM nominal, no inhibitor): 0.29 ± 0.06 pmol/mg protein
- Accumulation, active transport (human OAT3; 0.30 µM nominal, no inhibitor): 0.31 ± 0.14 pmol/mg protein
- Fold accumulation (human OAT3; 0.30 µM nominal, no inhibitor): 2.09
- Max. transporter-specific fold accumulation, without inhibitor (human OAT3; 0.3 µM): 2.09
- Uptake via transporter (OAT3) (human OAT3; [3]): not taken up
- Max. transporter-specific fold accumulation, with inhibitor (human OAT3; Probenecid, 0.3 µM): 2.52
- Accumulation in OAT1 transporter expressing cells (human OAT1; [4]): 0.04 ± 0.00 pmol/mg protein
- Accumulation in control cells (human OAT1; [4]): 0.03 ± 0.00 pmol/mg protein
- Accumulation, active transport (human OAT1; [4]): 0.00 ± 0.00 pmol/mg protein
- Fold accumulation (human OAT1; [4]): 1.10
- Accumulation in OAT1 transporter expressing cells (human OAT1; 0.03 µM nominal, no inhibitor): 0.06 ± 0.01 pmol/mg protein
- Accumulation in control cells (human OAT1; 0.03 µM nominal, no inhibitor): 0.05 ± 0.01 pmol/mg protein
- Accumulation, active transport (human OAT1; 0.03 µM nominal, no inhibitor): 0.01 ± 0.01 pmol/mg protein
- Fold accumulation (human OAT1; 0.03 µM nominal, no inhibitor): 1.17
- Accumulation in OAT1 transporter expressing cells (human OAT1; [5]): 0.62 ± 0.13 pmol/mg protein
- Accumulation in control cells (human OAT1; [5]): 0.44 ± 0.10 pmol/mg protein
- Accumulation, active transport (human OAT1; [5]): 0.18 ± 0.16 pmol/mg protein
- Fold accumulation (human OAT1; [5]): 1.42
- Accumulation in OAT1 transporter expressing cells (human OAT1; 0.30 µM nominal, no inhibitor): 0.36 ± 0.02 pmol/mg protein
- Accumulation in control cells (human OAT1; 0.30 µM nominal, no inhibitor): 0.34 ± 0.06 pmol/mg protein
- Accumulation, active transport (human OAT1; 0.30 µM nominal, no inhibitor): 0.01 ± 0.06 pmol/mg protein
- Fold accumulation (human OAT1; 0.30 µM nominal, no inhibitor): 1.04
- Max. transporter-specific fold accumulation, without inhibitor (human OAT1; 0.03 µM): 1.17
- Uptake via transporter (OAT1) (human OAT1; [3]): not taken up
- Max. transporter-specific fold accumulation, with inhibitor (human OAT1; Probenecid, 0.03 µM): 1.10
